# Source: ChEMBL document CHEMBL3797194, “Benzimidazolone bioisosteres of potent GluN2B selective NMDA receptor antagonists” (Eur J Med Chem, 2016)
# Tests used:
# [1] = Displacement of [3H]DTG from sigma2 receptor in rat liver homogenate incubated for 120 mins by solid scintillation counting analysis; type: tissue-based
# [2] = target: T1, Glutamate receptor ionotropic, NMDA 2B (Homo sapiens, UniProt Q13224); assay: Displacement of [3H]ifenprodil from recombinant human GluN2B expressed in mouse L(tk-) cell membranes incubated for 120 mins by microbeta scintillation counting analysis
# Target sequence in this assay (Q13224 whole entry): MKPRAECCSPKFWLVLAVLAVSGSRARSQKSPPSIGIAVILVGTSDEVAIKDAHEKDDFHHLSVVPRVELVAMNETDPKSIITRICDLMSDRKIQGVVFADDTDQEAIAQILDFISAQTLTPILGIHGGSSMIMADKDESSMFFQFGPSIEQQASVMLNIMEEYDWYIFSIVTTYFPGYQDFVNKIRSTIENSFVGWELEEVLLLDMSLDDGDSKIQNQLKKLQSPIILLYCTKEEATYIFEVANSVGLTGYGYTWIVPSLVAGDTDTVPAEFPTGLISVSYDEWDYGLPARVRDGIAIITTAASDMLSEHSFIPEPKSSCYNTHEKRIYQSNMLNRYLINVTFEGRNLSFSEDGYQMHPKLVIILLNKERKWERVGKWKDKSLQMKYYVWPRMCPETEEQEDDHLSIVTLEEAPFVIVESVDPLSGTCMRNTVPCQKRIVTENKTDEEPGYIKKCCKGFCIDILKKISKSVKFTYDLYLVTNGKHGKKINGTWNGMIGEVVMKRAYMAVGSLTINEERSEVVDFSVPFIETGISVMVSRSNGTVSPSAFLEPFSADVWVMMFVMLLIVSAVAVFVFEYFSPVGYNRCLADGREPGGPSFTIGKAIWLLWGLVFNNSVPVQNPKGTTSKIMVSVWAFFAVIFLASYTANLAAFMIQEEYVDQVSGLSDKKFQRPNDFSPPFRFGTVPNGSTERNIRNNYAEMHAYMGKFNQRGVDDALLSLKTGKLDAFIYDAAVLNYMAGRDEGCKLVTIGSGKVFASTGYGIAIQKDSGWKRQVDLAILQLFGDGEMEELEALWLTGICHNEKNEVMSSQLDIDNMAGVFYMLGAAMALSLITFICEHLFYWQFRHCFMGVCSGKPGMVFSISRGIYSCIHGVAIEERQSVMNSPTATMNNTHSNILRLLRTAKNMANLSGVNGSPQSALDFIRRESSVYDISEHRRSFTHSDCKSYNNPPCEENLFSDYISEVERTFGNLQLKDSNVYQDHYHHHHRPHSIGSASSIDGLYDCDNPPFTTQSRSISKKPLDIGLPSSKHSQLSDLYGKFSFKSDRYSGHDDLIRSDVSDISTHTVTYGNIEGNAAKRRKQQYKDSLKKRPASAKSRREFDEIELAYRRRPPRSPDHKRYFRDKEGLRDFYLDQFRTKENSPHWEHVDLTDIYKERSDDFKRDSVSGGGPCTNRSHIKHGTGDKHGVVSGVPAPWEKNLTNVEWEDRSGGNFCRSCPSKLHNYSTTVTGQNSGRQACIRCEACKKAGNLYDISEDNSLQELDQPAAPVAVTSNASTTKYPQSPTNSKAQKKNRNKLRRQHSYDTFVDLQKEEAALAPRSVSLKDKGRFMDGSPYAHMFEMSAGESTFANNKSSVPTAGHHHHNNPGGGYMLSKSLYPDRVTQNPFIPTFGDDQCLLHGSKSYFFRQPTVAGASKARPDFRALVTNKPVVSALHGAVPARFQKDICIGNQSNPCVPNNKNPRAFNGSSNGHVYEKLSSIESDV
# [3] = target: Sigma non-opioid intracellular receptor 1 (Cavia porcellus, UniProt Q60492); assay: Displacement of [3H]-(+)-Pentazocine from sigma1 receptor in guinea pig brain homogenate incubated for 120 mins by solid scintillation counting analysis; type: tissue-based
# [4] = target: T1, Glutamate receptor ionotropic, NMDA 2B; assay: Binding affinity to GluN2B (unknown origin)
# Target sequence in this assay (Q13224 whole entry): as above
# Rattus norvegicus = organism: Rattus norvegicus; assay: Displacement of [3H]DTG from sigma2 receptor in rat liver homogenate at 1 uM incubated for 120 mins by solid scintillation counting analysis; type: tissue-based
# [5] = target: T1, Glutamate receptor ionotropic, NMDA 2B; assay: Displacement of [3H]ifenprodil from recombinant human GluN2B expressed in mouse L(tk-) cell membranes at 1 uM incubated for 120 mins by microbeta scintillation counting analysis
# Target sequence in this assay (Q13224 27-1484 limits assumed): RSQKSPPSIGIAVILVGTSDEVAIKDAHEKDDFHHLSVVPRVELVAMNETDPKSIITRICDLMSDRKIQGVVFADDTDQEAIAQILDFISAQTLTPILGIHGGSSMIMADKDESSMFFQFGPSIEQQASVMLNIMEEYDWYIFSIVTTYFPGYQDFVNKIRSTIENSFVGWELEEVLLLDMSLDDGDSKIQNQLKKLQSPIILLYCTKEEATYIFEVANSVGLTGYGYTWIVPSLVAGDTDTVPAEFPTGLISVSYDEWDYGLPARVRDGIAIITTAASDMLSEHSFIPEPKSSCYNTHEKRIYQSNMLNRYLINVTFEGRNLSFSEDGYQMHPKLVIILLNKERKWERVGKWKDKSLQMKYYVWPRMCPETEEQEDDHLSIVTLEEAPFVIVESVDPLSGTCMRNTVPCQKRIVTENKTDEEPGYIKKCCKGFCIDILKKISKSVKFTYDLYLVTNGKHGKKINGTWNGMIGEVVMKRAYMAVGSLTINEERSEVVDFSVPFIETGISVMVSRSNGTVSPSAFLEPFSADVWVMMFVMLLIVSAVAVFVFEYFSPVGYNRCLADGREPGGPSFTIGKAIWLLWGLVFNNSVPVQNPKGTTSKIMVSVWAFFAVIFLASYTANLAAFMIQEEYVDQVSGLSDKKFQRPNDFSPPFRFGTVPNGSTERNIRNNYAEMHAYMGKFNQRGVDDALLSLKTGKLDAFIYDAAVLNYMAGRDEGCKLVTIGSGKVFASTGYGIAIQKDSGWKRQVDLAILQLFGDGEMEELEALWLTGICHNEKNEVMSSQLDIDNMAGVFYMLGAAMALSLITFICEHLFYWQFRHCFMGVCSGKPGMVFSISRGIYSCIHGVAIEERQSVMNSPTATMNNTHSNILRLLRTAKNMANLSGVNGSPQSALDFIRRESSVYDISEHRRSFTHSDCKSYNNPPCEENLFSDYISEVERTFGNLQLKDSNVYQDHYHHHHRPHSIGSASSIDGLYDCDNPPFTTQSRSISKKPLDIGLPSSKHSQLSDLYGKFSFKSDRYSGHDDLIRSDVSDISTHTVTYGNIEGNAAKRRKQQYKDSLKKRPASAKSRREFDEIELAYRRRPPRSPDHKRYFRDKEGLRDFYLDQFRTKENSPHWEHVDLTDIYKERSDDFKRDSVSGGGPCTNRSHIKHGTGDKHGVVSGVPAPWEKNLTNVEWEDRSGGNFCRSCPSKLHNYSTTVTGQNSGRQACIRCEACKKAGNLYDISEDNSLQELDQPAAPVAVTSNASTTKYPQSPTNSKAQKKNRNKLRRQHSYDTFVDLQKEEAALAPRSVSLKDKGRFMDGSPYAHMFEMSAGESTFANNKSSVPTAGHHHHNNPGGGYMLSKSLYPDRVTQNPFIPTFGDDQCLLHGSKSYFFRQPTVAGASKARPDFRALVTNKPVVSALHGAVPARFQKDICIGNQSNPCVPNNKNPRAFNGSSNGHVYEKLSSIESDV
# [6] = target: Sigma non-opioid intracellular receptor 1 (Cavia porcellus) (UniProt Q60492); assay: Displacement of [3H]-(+)-Pentazocine from sigma1 receptor in guinea pig brain homogenate at 1 uM incubated for 120 mins by solid scintillation counting analysis; type: tissue-based
# Chain of Sigma non-opioid intracellular receptor 1 (Cavia porcellus) (Q60492 whole entry): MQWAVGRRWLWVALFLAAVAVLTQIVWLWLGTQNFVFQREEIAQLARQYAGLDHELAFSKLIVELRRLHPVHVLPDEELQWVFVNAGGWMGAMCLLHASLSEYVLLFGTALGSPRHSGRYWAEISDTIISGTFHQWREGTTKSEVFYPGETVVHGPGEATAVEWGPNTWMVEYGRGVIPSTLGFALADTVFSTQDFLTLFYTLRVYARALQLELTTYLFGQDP
# Chain of Sigma non-opioid intracellular receptor 1 (Q60492 whole entry): as above
Structure (SMILES),Ki [1] [nM],inhibition (Rattus norvegicus) [%],inhibition [5] [%],inhibition [6] [%],other results
Cc1ccccc1NC(=N)Nc1ccccc1C [DITOLYLGUANIDINE],57.5,,,,
Cn1c(=O)n(C)c2cc3c(cc21)CCCC(NCCCc1ccccc1)C3 (racemic),549,,,,Ki [2]: 697 nM; Ki [3]: 4000 nM
O=c1[nH]c2ccc([S+]([O-])CCN3CCC(Cc4ccc(F)cc4)CC3)cc2o1 (centres undefined) [BESONPRODIL],,,,,Ki [4]: 30 nM
Cn1c(=O)n(C)c2cc3c(cc21)CCC[C@@H](O)[C@@H]3NCCCc1ccccc1 (racemic),,32,0,19,
Cn1c(=O)n(C)c2cc3c(cc21)CCC[C@@H](O)[C@@H]3O (racemic),,18,18,0,
Cn1c(=O)n(C)c2cc3c(cc21)CCC[C@H](O)[C@@H]3O (racemic),,5,0,11,
